Where two headings read alike, the source gives them in different places.
Experiments:
[1] = format: physicochemical; conditions: for Concentration measured by HPLC after treatment: pH 7 buffer, 20° C.
Protocol: A stock pH 7 buffer solution was prepared by adding aqueous sodium hydroxide solution (0.1 M, 145 mL) to aqueous potassium dihydrogen phosphate solution (0.1 M, 250 mL), and then adding sufficient distilled water to adjust the final volume to 500 mL. At least 1 time and up to about 5 times the amount of diclosulam needed for saturation was added to a mixing vessel containing stock buffer solution at the test temperature (e.g., 20° C.). The mixture was magnetically stirred in the dark while being maintained at the test temperature and the samples were intermittently and periodically removed for analysis. The samples were centrifuged using a high speed, temperature-controlled centrifuge at the test temperature for about 20 minutes at ≧12000 G to remove suspended particles. An aliquot of each supernatant was taken for analysis. The concentration of diclosulam in the supernatant was determined by a high pressure liquid chromatography (HPLC) with a reversed phase chromatography column and UV detection. The method should include development of best-fit calibration curves based on at least three standards using linear regression analysis Samples were successively withdrawn from the mixing vessel and analyzed until three successive samples show little or no variation in concentration. The test is preferably replicated to ensure accuracy.

[2] = Viscosity (stated in words, no method given); format: physicochemical
[3] = OD formulation, original concentration 40%
[4] = SG formulation, original concentration 25%
[5] = WG formulation, original concentration 25%

Compound | Concentration measured by HPLC after treatment [1, 3] [%] | Concentration measured by HPLC after treatment [1, 4] [%] | Concentration measured by HPLC after treatment [1, 5] [%] | Viscosity (in words) ([2]; listed as diclosulam in amorphous state) | Solubility (in words) [1] | Viscosity (in words) ([2]; listed as crystalline modification I of diclosulam)
CCOc1nc(F)cc2nc(S(=O)(=O)Nc3c(Cl)cccc3Cl)nn12 [Amorphous diclosulam, 2′,6′-dichloro-5-ethoxy-7-fluoro[1,2,4]triazolo[1,5-c]pyrimidine-2-sulfonanilide, reference compound] | 14 | 15 | 12 | highly viscous | – | –
CCOc1nc(F)cc2nc(S(=O)(=O)Nc3c(Cl)cccc3Cl)nn12 [Diclosulam, crystalline modification I, 2′,6′-dichloro-5-ethoxy-7-fluoro[1,2,4]triazolo[1,5-c]pyrimidine-2-sulfonanilide] | 35 | 24.9 | 23 | – | significant increase | significant decrease

— patent US9643973B1, “Crystalline form of diclosulam, a process for its preparation and use of the same” (Rotam Agrochem International Company Limited, priority 2016, dated 2017)
